Source: patent publication US7595401B2, “Therapeutic compounds and their use in cancer” (Myriad Pharmaceuticals, Inc., priority 2006, dated 2009)

Target: purified human Hsp90
Assay: Binding Assay: fluorescence polarization with BODIPY-labeled geldanamycin
Conditions: BODIPY-GM 10 nM, Hsp90 30 nM
Method in brief: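 Fluorescence polarization competition with BODIPY-geldanamycin (10 nM final) and human Hsp90 (30 nM final) in HEPES-KOH pH 7.3 buffer with molybdate, NP-40, DTT; 2% DMSO, overnight at room temperature. Read 485/530 nm; percent inhibition from mP normalized to DMSO controls, fluorescent-compound points excluded.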

Row | IC50 [nM] | % Inhibition at 5 μM Compound Concentration [%] | SMILES
1 | 41 | – | CCCNC(=N)N1CCC(CCn2c(Sc3cc4c(cc3Br)OCO4)nc3c(N)ncnc32)CC1 [Example 618, 4-(2-{6-Amino-8-[(6-bromo-1,3-benzodioxol-5-yl)thio]-9 H-purin-9-yl}ethyl)-N-propylpiperidine-1-carboximidamide]
2 | – | 76.00 | CCCNC(=N)N1CCC(CCn2cnc(N)c3nc(Sc4cc5c(cc4Br)OCO5)nc2-3)CC1 [Example 619, 4-(2-{6-Amino-8-[(6-bromo-1,3-benzodioxol-5-yl)thio]-3 H-purin-3-yl}ethyl)-N-propylpiperidine-1-carboximidamide]
3 | 170 | – | CC(=O)N1CCC(CCn2c(Sc3cc4c(cc3C#N)OCO4)nc3c(N)ncnc32)CC1 [Example 620, 6-({9-[2-(1-Acetylpiperidin-4-yl)ethyl]-6-amino-9 H-purin-8-yl}thio)-1,3-benzodioxole-5-carbonitrile]
4 | > 5000 | – | CC(=O)N1CCC(CCn2cnc(N)c3nc(Sc4cc5c(cc4C#N)OCO5)nc2-3)CC1 [Example 621, 6-({3-[2-(1-Acetylpiperidin-4-yl)ethyl]-6-amino-3 H-purin-8-yl}thio)-1,3-benzodioxole-5-carbonitrile]
5 | > 5000 | – | COc1cc(C#N)c(Sc2nc3c(N)ncnc3n2CCC2CCN(C(C)=O)CC2)cc1OC [Example 622, 2-({9-[2-(1-Acetylpiperidin-4-yl)ethyl]-6-amino-9 H-purin-8-yl}thio)-4,5-dimethoxybenzonitrile]
6 | > 4000 | – | COc1cc(C#N)c(Sc2nc3c(N)ncn(CCC4CCN(C(C)=O)CC4)c-3n2)cc1OC [Example 623, 2-({3-[2-(1-Acetylpiperidin-4-yl)ethyl]-6-amino-3 H-purin-8-yl}thio)-4,5-dimethoxybenzonitrile]
7 | 580 | – | COCc1cc2c(cc1Sc1nc3c(N)ncnc3n1CCC1CCN(C=O)CC1)OCO2 [Example 624, 4-[2-(6-Amino-8-{[6-(methoxymethyl)-1,3-benzodioxol-5-yl]thio}-9 H-purin-9-yl)ethyl]piperidine-1-carbaldehyde]
8 | 110 | – | C#CCN1CCC(CCn2c(Sc3cc4c(cc3Br)OCO4)nc3c(N)ncnc32)CC1 [Example 625, 8-[(6-Bromo-1,3-benzodioxol-5-yl)thio]-9-[2-(1-prop-2-yn-1-ylpiperidin-4-yl)ethyl]-9 H-purin-6-amine]
9 | > 8000 | – | CCC(CC)N1CCN(CCn2c(Sc3cc(OC)ccc3OC)nc3c(N)ncnc32)CC1 [Example 627, 8-[(2,5-Dimethoxyphenyl)thio]-9-{2-[4-(1-ethylpropyl)piperazin-1-yl]ethyl}-9 H-purin-6-amine]
10 | – | 23.00 | CCC(CC)N1CCN(CCn2cnc(N)c3nc(Sc4cc(OC)ccc4OC)nc2-3)CC1 [Example 628, 8-[(2,5-Dimethoxyphenyl)thio]-3-{2-[4-(1-ethylpropyl)piperazin-1-yl]ethyl}-3 H-purin-6-amine]
11 | > 25000 | – | COc1ccc(OC)c(Sc2nc3c(N)ncnc3n2CCN2CCN(C(C)=O)CC2)c1 [Example 629, 9-[2-(4-Acetylpiperazin-1-yl)ethyl]-8-[(2,5-dimethoxyphenyl)thio]-9 H-purin-6-amine]
12 | 9000 | – | COc1ccc(OC)c(Sc2nc3c(N)ncn(CCN4CCN(C(C)=O)CC4)c-3n2)c1 [Example 630, 3-[2-(4-Acetylpiperazin-1-yl)ethyl]-8-[(2,5-dimethoxyphenyl)thio]-3 H-purin-6-amine]
13 | > 3000 | – | Nc1ncnc2c1nc(Sc1cc3c(cc1Br)OCO3)n2CCN1CCN(C2CCCC2)CC1 [Example 632, 8-[(6-Bromo-1,3-benzodioxol-5-yl)thio]-9-[2-(4-cyclopentylpiperazin-1-yl)ethyl]-9 H-purin-6-amine]
14 | 1500 | – | CC(C)(C)C(=O)N1CCN(CCn2c(Sc3cc4c(cc3Br)OCO4)nc3c(N)ncnc32)CC1 [Example 633, 8-[(6-Bromo-1,3-benzodioxol-5-yl)thio]-9-{2-[4-(2,2-dimethylpropanoyl)piperazin-1-yl]ethyl}-9 H-purin-6-amine]
15 | 8100 | – | COc1ccc(OC)c(Sc2nc3c(N)ncnc3n2CCN2CCNC(=O)C2)c1 [Example 634, 4-(2-{6-Amino-8-[(2,5-dimethoxyphenyl)thio]-9 H-purin-9-yl}ethyl)piperazin-2-one]
16 | – | 25.00 | COc1ccc(OC)c(Sc2nc3c(N)ncn(CCN4CCOCC4)c-3n2)c1 [Example 636, 8-[(2,5-Dimethoxyphenyl)thio]-3-(2-morpholin-4-ylethyl)-3 H-purin-6-amine]
17 | > 25000 | – | CC(C)(C)OC(=O)N1CCCC(CCCn2c(Sc3cc4c(cc3Br)OCO4)nc3c(N)ncnc32)C1 (stereo not shown) [Example 637, tert-Butyl 3-(3-{6-amino-8-[(6-bromo-1,3-benzodioxol-5-yl)thio]-9 H-purin-9-yl}propyl)piperidine-1-carboxylate]
18 | > 25000 | – | CC(C)(C)OC(=O)N1CCCCC1CCCn1c(Sc2cc3c(cc2Br)OCO3)nc2c(N)ncnc21 (stereo not shown) [Example 638, tert-Butyl 2-(3-{6-amino-8-[(6-bromo-1,3-benzodioxol-5-yl)thio]-9 H-purin-9-yl}propyl)piperidine-1-carboxylate]
19 | 900 | – | CC(C)(C)OC(=O)N1CCC(Cn2c(Sc3cc4c(cc3Br)OCO4)nc3c(N)ncnc32)CC1 [Example 639, tert-Butyl 4-({6-amino-8-[(6-bromo-1,3-benzodioxol-5-yl)thio]-9 H-purin-9-yl}methyl)piperidine-1-carboxylate]
20 | – | 19.00 | CC(C)(C)OC(=O)N1CCC(Cn2cnc(N)c3nc(Sc4cc5c(cc4Br)OCO5)nc2-3)CC1 [Example 640, tert-Butyl 4-({6-amino-8-[(6-bromo-1,3-benzodioxol-5-yl)thio]-3 H-purin-3-yl}methyl)piperidine-1-carboxylate]
21 | 1100 | – | CC(C)(C)OC(=O)N1CCCC(Cn2c(Sc3cc4c(cc3Br)OCO4)nc3c(N)ncnc32)C1 (stereo not shown) [Example 641, tert-Butyl 3-({6-amino-8-[(6-bromo-1,3-benzodioxol-5-yl)thio]-9 H-purin-9-yl}methyl)piperidine-1-carboxylate]
22 | – | 15.00 | CC(C)(C)OC(=O)N1CCCC(Cn2cnc(N)c3nc(Sc4cc5c(cc4Br)OCO5)nc2-3)C1 (stereo not shown) [Example 642, tert-Butyl 3-({6-amino-8-[(6-bromo-1,3-benzodioxol-5-yl)thio]-3 H-purin-3-yl}methyl)piperidine-1-carboxylate]

Row | SMILES | IC50 [nM] | % Inhibition at 5 μM Compound Concentration [%]
23 | COc1ccc(OC)c(Sc2nc3c(N)ncnc3n2CCN2CCN(C)CC2)c1 [Example 631, 8-[(2,5-Dimethoxyphenyl)thio]-9-[2-(4-methylpiperazin-1-yl)ethyl]-9 H-purin-6-amine] | 2000 | –
24 | CCOP(=O)(OCC)N1CCCCC1CCn1c(Sc2cc3c(cc2Br)OCO3)nc2c(N)ncnc21 (stereo not shown) [Example 643, Diethyl [2-(2-{6-amino-8-[(6-bromo-1,3-benzodioxol-5-yl)thio]-9 H-purin-9-yl}ethyl)piperidin-1-yl]phosphonate] | 5000 | –
25 | CCOP(=O)(OCC)N1CCC(CCn2c(Sc3cc4c(cc3Br)OCO4)nc3c(N)ncnc32)CC1 [Example 644, Diethyl [4-(2-{6-amino-8-[(6-bromo-1,3-benzodioxol-5-yl)thio]-9 H-purin-9-yl}ethyl)piperidin-1-yl]phosphonate] | 200 | –
